Here are results for 16 compounds from ChEMBL document CHEMBL4808240, “Design, synthesis and analysis of novel sphingosine kinase-1 inhibitors to improve oral bioavailability” (Bioorg Med Chem Lett, 2021).

Structures are written as SMILES.

In this experiment the target is Sphingosine kinase 1 (Homo sapiens, UniProt Q9NYA1). Put plainly: Inhibition of recombinant full length GST-tagged human SPHK1 expressed in baculovirus expression system incubated for 1 hr in presence of ATP by Alexa Fluor 647 tracer based Adapta assay.
Chain of Sphingosine kinase 1 (Q9NYA1 whole entry): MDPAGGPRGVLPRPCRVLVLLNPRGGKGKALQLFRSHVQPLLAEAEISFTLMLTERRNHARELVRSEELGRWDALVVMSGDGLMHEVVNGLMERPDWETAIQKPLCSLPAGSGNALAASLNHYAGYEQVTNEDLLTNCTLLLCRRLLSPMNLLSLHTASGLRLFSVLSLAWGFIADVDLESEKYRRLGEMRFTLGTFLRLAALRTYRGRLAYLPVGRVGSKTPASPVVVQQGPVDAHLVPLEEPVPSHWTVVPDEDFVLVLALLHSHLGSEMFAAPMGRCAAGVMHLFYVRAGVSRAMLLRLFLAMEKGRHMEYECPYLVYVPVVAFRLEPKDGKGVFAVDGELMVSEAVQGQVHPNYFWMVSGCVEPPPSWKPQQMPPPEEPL

One may read the IC50 as the point on the concentration scale where inhibition reaches its midpoint. In the case of `O=C(N/N=C/c1c(O)ccc2ccccc12)c1cc(-c2ccc3ccccc3c2)n[nH]1`, the IC50 was above 10 µM. As for `O=C(N/N=C/c1cccc(O)c1)c1cc(-c2ccc3ccccc3c2)n[nH]1`, the IC50 was above 10 µM. For the compound `O=C(N/N=C/c1ccccc1O)c1cc(-c2ccc3ccccc3c2)n[nH]1`, the IC50 was above 10 µM.

In the case of `O=C(N/N=C/c1ccc(O)cc1)c1cc(-c2ccc3ccccc3c2)n[nH]1`, the IC50 is above 10 µM. For `O=C(N/N=C/C1CCCCC1)c1cc(-c2ccc3ccccc3c2)[nH]n1`, the IC50 was above 10 µM. For `COc1cccc(/C=N/NC(=O)c2cc(-c3ccc4ccccc4c3)[nH]n2)c1`, the IC50 is above 10 µM.

For `O=C(N/N=C/c1ccc(Cl)cc1)c1cc(-c2ccc3ccccc3c2)[nH]n1`, the IC50 is above 10 µM. Take `COc1ccccc1/C=N/NC(=O)c1cc(-c2ccc3ccccc3c2)[nH]n1`: the IC50 was above 10 µM. The result for `O=C(N/N=C/c1cccc([N+](=O)[O-])c1)c1cc(-c2ccc3ccccc3c2)[nH]n1` reads above 10 µM; that for `COc1ccc(/C=N/NC(=O)c2cc(-c3ccc4ccccc4c3)[nH]n2)cc1`, above 10 µM; that for `COc1ccc2ccccc2c1/C=N/NC(=O)c1cc(-c2ccc3ccccc3c2)[nH]n1`, above 10 µM.

Take `O=C(N/N=C/c1ccccc1)c1cc(-c2ccc3ccccc3c2)[nH]n1`: the IC50 was above 10 µM. Regarding `O=C(N/N=C/c1cccnc1)c1cc(-c2ccc3ccccc3c2)[nH]n1`, the IC50 was above 10 µM.

Turning to `O=C(N/N=C/c1ccc2c(c1)OCCO2)c1cc(-c2ccc3ccccc3c2)[nH]n1`, the IC50 is above 10 µM.

With `O=C(N/N=C/c1cccc2ccccc12)c1cc(-c2ccc3ccccc3c2)[nH]n1`, the IC50 was above 10 µM.

In the case of `COc1ccc(/C=N/NC(=O)c2cc(-c3ccc4ccccc4c3)[nH]n2)cc1OC`, the IC50 was 6.55 µM.
